Laboratory results reported in patent US20230033582A1, “POLYMERIC NANOPARTICLES FOR ENHANCED CANCER TREATMENT” (THE QUEEN'S UNIVERSITY OF BELFAST, priority 2019, published 2023).
One block for each compound: values may come before it.

Key:
MC38 cells = experiment: Flow cytometry of SIINFEKL presentation on MHC I (SIINFEKL-bound MHC antibody) in MC38 cells; assay type: cell-based; details: for presentation of NP-encapsulated OVA-derived SIINFEKL after pre-treatment: then OVA-NPs for 6 hours
Method: FIG. 8: illustrate the results of Gemcitabine enhances SIINFEKL presentation: MC38 cells were pretreated with 30 nm Gemcitabine for 24 hours. Then, cells were treated with 1 μM SIINFEKL peptide for 6 hours. After 6 hours, cells were stained with PE-SIINFEKL-bound MHC antibody to determine the levels of SIINFEKL presentation. Presentation of SIINFEKL was enhanced after pre-treatment with Gemcitabine highlighting the potential of boosting CD8+ T cell recognition of tumour cells through combining the nanoformulation with Gemcitabine;
(§1) FIG. 9: illustrate the results of Gemcitabine enhances the presentation of Ovalbumin-derived SIINFEKL encapsulated within nanoparticles: MC38 cells were pre-treated with 7.5, 15 and 30 nm Gemcitabine for 24 hours. Then, the cells were treated with OVA-NPs for 6 hours. After 6 hours, cells were stained with PE-SIINFEKL-Bound MHC antibody and an isotype control antibody to determine levels of OVA-derived SIINFEKL presentation. NP-encapsulated OVA-derived SIINFEKL was seen to be enhanced after pre-treatment with Gemcitabine;
FIG. 10: illustrate the results of Epigenetic modifying agents (EMAs) enhance the presentation of Ovalbumin-derived SIINFEKL encapsulated within nanoparticles: MC38 cells were pre-treated with Entinostat and Decitabine. After 24 hours, cells were treated with OVA-NPs (250 μg/mL) for 6 hours. Cells were stained with SIINFEKL-bound MHC antibody and the surface presentation of SIINFEKL was determined by flow cytometry. Both agents in combination enhanced SIINFEKL presentation;
as §1, with “11:” for “9:”, “Lysosome disruptive agent L-leucyl-L-leucine methyl ester (LLOME)” for “Gemcitabine”, “LLOME” for “7.5, 15 and 30 nm Gemcitabine”, “PE-SIINFEKL-bound” for “PE-SIINFEKL-Bound”, “LLOME;” for “Gemcitabine;”
as §1, with “12:” for “9:”, “the anti-malarial Mefloquine” for “Gemcitabine”, “Mefloquine” for “7.5, 15 and 30 nm Gemcitabine”, “PE-SIINFEKL-bound” for “PE-SIINFEKL-Bound”, “Mefloquine.” for “Gemcitabine;”
MC38 cells were seeded at 5×10^4 in 6 well plates and left overnight to adhere in 2 mL of the appropriate growth medium. Following this, the cells were treated with 250 μg/mL of either acid terminated poly(lactic-co-glycolic acid) (PLGA) nanoparticles (NPs) or PLGA NPs encapsulating the SIINFEKL peptide (for cells treated at 4 degrees C., cells were maintained at 4° C. for 45 minutes prior to treatment). Following treatment, the cells were washed 3 times with sterile PBS (4° C. treatment group were washed on ice) and the cells incubated for a following 6 hours at 37° C. The surface expression of SIINFEKL was determined by flow cytometry.
MC38 cells were seeded at 5×10^4 in 6 well plates and left overnight to adhere in 2 mL of the appropriate growth medium. Following this, the cells were treated with 250 μg/mL of either acid terminated poly(lactic-co-glycolic acid) (PLGA) nanoparticles (NPs) or PLGA NPs encapsulating the Ovalbumin protein. Free, pre-processed SIINFEKL was used as a positive control. Cells were incubated for 24 hours at 37° C. Following this, the cells were collected and incubated with a PE-conjugated antibody specific for MHC-I bound to the SIINFEKL peptide (Biolegend, USA). Next, presentation of the SIINFEKL peptide was assessed by flow cytometry. […]

[1] = target: SIINFEKL bound to MHC class I on the cell surface (UniProt P01901); experiment: flow cytometry, JAWS II cells treated with free SIINFEKL
JAWS II cells = experiment: Flow cytometry of SIINFEKL presentation on MHC I (SIINFEKL-bound MHC antibody) in JAWS II dendritic cell line; assay type: cell-based; details: FIG. 5, free SIINFEKL positive control, 6 hours
Method: FIG. 5: illustrate the results of Nanoparticle encapsulated SIINFEKL is presented on MHC I in the JAWS II dendritic cell line: JAWS II cells were seeded in 6 well plates at 1×10^5 and left overnight. The following day, cells were treated with either 500 μg of PLGA-SIINFEKL NP (SIINFEKL NP), PLGA NP (B-NP) or free SIINFEKL (Positive control). The cells were incubated at 37° C. in 5% CO2 for 6 hours. After incubation, an antibody specific for SIINFEKL bound to MHC I was used to detect cell surface expression of the antigen. Assessment was undertaken using flow cytometry. An Isotype specific IgG control (SIINFEKL IgG) was used to detect non-specific binding of the antibody. […] Diagram is a representative figure from 3 independent experiments;
FIG. 6: illustrate the results of Presentation of nanoparticle-encapsulated SIINFEKL is dependent on endocytosis: (A) JAWS II cells and (B) MC38 cells ells were treated with either 250 μg/mL blank nanoparticles (B-NP), 250 μg/mL nanoparticles encapsulating the SIINFEKL peptide (SIINFEKL-NP) or 1 μM free SIINFEKL (positive control) for 1 hour at either 4° C. or 37° C. Cells were washed to remove non-endocytosed nanoparticles or free peptide and were incubated at 37° C. Cells were stained with SIINFEKL-bound MHC antibody and SIINFEKL presentation was determined by flow cytometry. […]

[2] = FIG. 11 and 12, MC38 cells pre-treated for 24 hours

Compound: Nc1ccn([C@@H]2O[C@H](CO)[C@@H](O)C2(F)F)c(=O)n1 [Gemcitabine]
Presentation of SIINFEKL after pre-treatment (MC38 cells; FIG. 8, MC38 cells pretreated with 30 nm Gemcitabine for 24 hours, then 1 μM SIINFEKL peptide for 6 hours): enhanced | presentation of NP-encapsulated OVA-derived SIINFEKL after pre-treatment (MC38 cells; FIG. 9, MC38 cells pre-treated with 7.5, 15 and 30 nm Gemcitabine for 24 hours): enhanced

Compound: Nc1ccccc1NC(=O)c1ccc(CNC(=O)OCc2cccnc2)cc1 [Entinostat]
SIINFEKL presentation after pre-treatment, both agents in combination (MC38 cells; FIG. 10, MC38 cells pre-treated with Entinostat and Decitabine 24 hours, then OVA-NPs (250 μg/mL) for 6 hours): enhanced

positive cells [1]: 100%
Compound: PE-conjugated antibody specific for MHC-I bound to the SIINFEKL peptide (Biolegend, USA)

Compound: SIINFEKL (Model Peptide) [SIINFEKL peptide, positive control]
SIINFEKL on the cell surface (fluorescent signal, geomean) (MC38 cells; FIG. 3, MC38 cells, 1 μM SIINFEKL peptide for 4 hours): high levels SIINFEKL on the surface | cells positive for SIINFEKL-MHC I antibody staining (JAWS II cells): ~100%

Compound: OC(c1cc(C(F)(F)F)nc2c(C(F)(F)F)cccc12)C1CCCCN1 (centres unmarked) [Mefloquine]
presentation of NP-encapsulated OVA-derived SIINFEKL after pre-treatment (MC38 cells; [2]): enhanced

Compound: COC(=O)[C@H](CC(C)C)NC(=O)[C@@H](N)CC(C)C [LLOME, L-leucyl-L-leucine methyl ester]
presentation of NP-encapsulated OVA-derived SIINFEKL after pre-treatment (MC38 cells; [2]): enhanced
